Measured values from article PMC7918738, “Microtubule Destabilizing Sulfonamides as an Alternative to Taxane-Based Chemotherapy” (International Journal of Molecular Sciences, 2021).
Values after ≈ are worked out from the molar mass of the structure shown.

Tests used:
[1] = system: HeLa (cervix epithelioid carcinoma); assay: Antiproliferative activity against HeLa (XTT colorimetric method); format: cell-based; settings: Homo sapiens, 72 h treatment
Method: The in vitro antiproliferative activity of MDS at 1 µM after 72 h treatments was evaluated by a colorimetric method against the human tumor cell lines HeLa (cervix epithelioid carcinoma) and MCF7 (breast adenocarcinoma). Compounds showing more than 40% inhibition at 1 µM in at least three independent assays were evaluated in a range of concentrations between 0.1 nM and 10 µM for the determination of half-maximal inhibitory concentrations (IC50) (Table 1). Paclitaxel, CA-4, and ABT-751 were used as references.
MCF7 (human breast carcinoma), SKOV-3 (human ovarian carcinoma), OVCAR-3 (human ovarian carcinoma), OVCAR-8 (human ovarian carcinoma), and HeLa (human cervical carcinoma) cell lines were cultured in Dulbecco’s Modified Eagle’s Medium (DMEM) (Gibco, Thermo Fischer Scientific) containing 10% (v/v) heat-inactivated fetal bovine serum (HIFBS) (Lonza-Cambrex, Karlskoga, Sweden), 2 mM L-glutamine (Lonza-Cambrex, Karlskoga, Sweden), 100 μg/mL streptomycin, and 100 IU/mL penicillin (Lonza-Cambrex) at 37 °C in humidified 95% air and 5% CO2. HT-29 (human colon carcinoma), IGROV-1 (human ovarian carcinoma), and A2780 (human ovarian carcinoma) cell lines were cultured in RPMI 1640 medium (Gibco, Thermo Fischer Scientific) supplemented with 10% HIFBS, 100 μg/mL streptomycin, and 100 IU/mL penicillin at 37 °C in humidified 95% air and 5% CO2 atmosphere. The presence of mycoplasma was routinely checked with MycoAlert kit (Lonza-Cambrex) and only mycoplasma-free cells were used in the experiments. Ovarian tumor cell lines were originally acquired from Dr Atanasio Pandiella from Centro de Investigación del Cáncer (CIC), Salamanca, Spain. HeLa, HT-29 and MCF7 tumor cell lines were provided by Dr Faustino Mollinedo from Centro de Investigaciones Biológicas Margarita Salas, Madrid, Spain.
MCF7, HeLa, and HT-29 cell proliferation, when treated with the corresponding compounds, were determined using the XTT (sodium 3’-[1(phenylaminocarbonyl)-3,4-tetrazolium]-bis(4-methoxy-6-nitro)-benzenesulfonic acid hydrate) cell proliferation kit (Roche Molecular Biochemicals, Mannheim, Germany). A freshly prepared mixture of XTT labeling reagent with 0.02% (v/v) PMS (N-methyl-dibenzopyrazine methyl sulfate) electron coupling reagent was added to cells (50 µL/well in 96-well plates, total volume of 160 µL/well). Cells were incubated under standard culture conditions for 4 h (MCF7 and HeLa) or 6 h (HT-29). The absorbance of the formazan product generated was measured at 450 nm using a multi-well plate reader. SKOV-3, OVCAR-3, OVCAR-8, IGROV-1, A-2780 cell proliferation, when treated with the corresponding compound, were determined using MTT (3-(4,5-dimethylthiazol-2-yl)-2,5-diphenyl-2H-tetrazolium bromide) (Sigma-Aldrich, St. Louis, MO, USA). MTT in Phosphate Buffer Saline (PBS) (5 mg/ml) was added to cells (110 µL/well in 24-well plates, total volume of 1110 µL/well). After 1 hour of incubation, the medium was aspirated, and formazan violet crystals were dissolved in dimethyl sulfoxide (DMSO) (500 µL/well). Absorbance was measured at 570 nm in a plate reader (Ultra Evolution, Tecan, Männedorf, Suiza). To determine cell viability, cells in exponential growth phase were seeded (100 µL/well in 96-well plates and 1000 µL/well in 24-well plates) with appropriate cell line concentration (1.5·10^4 cells/mL for MCF7 and HeLa, 3·10^4 cells/mL for HT-29, and 1·10^4 cells/mL for SKOV-3, OVCAR-3, OVCAR-8, IGROV-1, and A-2780) in complete RPMI 1640 or DMEM medium at 37°C and 5% CO2 atmosphere. After 24 h incubation, to allow cells to attach to the plates, all compounds were added at 1 µM concentration and the effect on the proliferation was evaluated 72 h post-treatment. Compounds showing antiproliferative effects at tested concentration were selected for IC50 calculation (50% inhibitory concentration with respect to the untreated controls) from 10^−5 to 10^−10 M concentration. Non-linear curves fitting the experimental data were carried out for each compound. […]

[2] = system: tubulin (microtubular protein isolated from calf brain); assay: Tubulin Polymerization Inhibition (TPI) assay, turbidity; format: biochemical; settings: 1.5 mg/mL microtubular protein; for TPI % 10 µM: compound at 10 µM
Method: The effect of all the synthesized compounds on the in vitro tubulin polymerization was evaluated at 10 µM. All the compounds that inhibited polymerization more than 30% were also assayed at 20 µM. IC50 values were calculated for those compounds inhibiting tubulin polymerization by at least 50% at 20 µM (Table 1 and Supplemental Figure S2).
Microtubular protein was isolated from calf brain according to the modified Shelanski method by two cycles of temperature-dependent assembly/disassembly and stored at −80 °C. Before each use, protein concentration was determined by the Bradford method taking BSA as standard.
Tubulin polymerization was monitored using a Helios α spectrophotometer by measuring the increase in turbidity at 450 nm, caused by a shift from 4 °C to 37 °C, which allows the in vitro microtubular protein to depolymerize and polymerize, respectively. The assay was carried out in quartz cuvettes containing 1.5 mg/mL microtubular protein and the ligand (except for control cuvette with only DMSO at the same concentration) in a mixture of 0.1 M MES buffer, 1 mM EGTA, 1 mM MgCl2, 1 mM β-ME, and 1.5 mM GTP at pH 6.7 (final volume 500 µL). Cuvettes were preincubated at 20 °C for 30 min, to allow ligand binding to tubulin, and subsequently cooled on ice for 10 min. Then, the experiment starts at 4 °C to establish the initial baseline. The assembly process was initiated by a temperature shift to 37 °C and the turbidity produced by tubulin polymerization can be measured by an absorbance increase. After reaching a stable plateau, the temperature was switched back to 4 °C to return to the initial absorption values (to confirm the reversible nature of the monitored process and to determine whether or not the microtubular tubular protein has stabilized). The difference in amplitude between the stable plateau and the initial baseline of the curves was taken as the degree of tubulin polymerization for each experiment. Comparison with control curves under identical conditions but without ligands yielded TPI as a percentage value. All compounds were tested at 10 µM concentration. Compounds that inhibited tubulin polymerization by at least 30% at 10 µM were tested at 20 µM. IC50 values were calculated for compounds that inhibit tubulin polymerization by more than 50% at 20 µM. Compounds were dissolved in DMSO, and the final solvent concentration never exceeded 4% (v/v), which has been reported not to interfere with the assembly process. All the measurements were carried out in at least two independent experiments using microtubular protein from different preparations.

[3] = Aqueous solubility, saturation shake-flask method, UV absorbance; settings: phosphate buffer, pH 7, aqueous buffer, thermodynamic from solid
Method: UV absorbance at three maximum absorbance wavelengths of selected compounds was measured after 48 h shaking and subsequent microfiltration.
The aqueous solubility of the sulfonamides was determined using an approach based on the saturation shake-flask method. Tested compounds (1–2 mg) were stirred in pH 7.0 phosphate buffer (300 µL) for 48 h at room temperature. The resulting suspension was filtered over a 45 µm filter to discard insoluble residues, and the concentration in the supernatant was measured by UV absorbance. To determine the concentration, a scan between 270 and 400 nm was performed in a Helios-α UV-320 Spectrophotometer (Thermo-Spectronic, Thermo Fischer Scientific, Waltham, MA, USA) for each tested compound. Then, three maximum wavelengths of absorbance per compound were selected from the previous scan and calibration curves were performed at these three wavelengths. Solubility results are given as the average of the three measurements.

| IC50 [1] [nM] | IC50 [2] [nM] | melting point [°C] | solubility at 48 h [3] [µg/mL] | SMILES | TPI % 10 µM [2] [%] |
| --- | --- | --- | --- | --- | --- |
| 240 | > 20000 | 115 to 116 | 83 (≈ 235 µM) | COc1ccc(S(=O)(=O)Nc2cc(OC)c(OC)c(OC)c2)cc1 [Compound 1a] | 0 |
| 287 | > 20000 | 190 to 195 | 38 (≈ 96.1 µM) | COc1ccc(S(=O)(=O)N(C(C)=O)c2cc(OC)c(OC)c(OC)c2)cc1 [Compound 5] | 0 |
| > 1000 | > 20000 | 151 to 158 | – | COc1ccc(S(=O)(=O)N(CC(=O)O)c2cc(OC)c(OC)c(OC)c2)cc1 [Compound 8] | 0 |
| > 1000 | > 20000 | 205 to 210 | – | COc1ccc(S(=O)(=O)N(C)c2cc(OC)c(OC)c(OC)c2NC(C)=O)cc1 [Compound 16] | 0 |
| > 1000 | > 20000 | 138 to 140 | – | COc1cc(NS(=O)(=O)c2ccc([N+](=O)[O-])cc2)cc(OC)c1OC [Compound 25] | 0 |
| 55 | > 20000 | – | 8 (≈ 19.7 µM) | COc1cc(N(CC#N)S(=O)(=O)c2ccc(N(C)C)cc2)cc(OC)c1OC [Compound 32] | 17 |
| 607 | > 20000 | 200 to 206 | 43 (≈ 122 µM) | CNc1ccc(S(=O)(=O)Nc2cc(OC)c(OC)c(OC)c2)cc1 [Compound 37] | 7 |
| 260 | > 20000 | – | 89 (≈ 242 µM) | COc1ccc(S(=O)(=O)Nc2cc(OC)c(OC)c(OC)c2)cc1N [Compound 41] | 15 |

Continued, molecule first:

| SMILES | IC50 [1] [nM] | IC50 [2] [nM] | melting point [°C] | solubility at 48 h [3] [µg/mL] | TPI % 10 µM [2] [%] |
| --- | --- | --- | --- | --- | --- |
| COc1ccc(S(=O)(=O)N(C)c2cc(OC)c(OC)c(OC)c2)cc1 [Compound 2a] | 71 | > 20000 | 123 to 124 | 27 (≈ 73.5 µM) | 35 |
| CCN(c1cc(OC)c(OC)c(OC)c1)S(=O)(=O)c1ccc(OC)cc1 [Compound 3] | 99 | > 20000 | 140 to 143 | 30 (≈ 78.6 µM) | 25 |
| CCOC(=O)CN(c1cc(OC)c(OC)c(OC)c1)S(=O)(=O)c1ccc(OC)cc1 [Compound 7] | 217 | > 20000 | 123 to 127 | – | 21 |
| COc1cc(NS(=O)(=O)c2ccc(N)cc2)cc(OC)c1OC [Compound 26] | > 1000 | > 20000 | 177 to 179 | 28 (≈ 82.7 µM) | 0 |
| COc1cc(N(C)S(=O)(=O)c2ccc(N(C)C)cc2)cc(OC)c1OC [Compound 29a] | 63 | > 20000 | 134 to 140 | 7 (≈ 18.4 µM) | 40 |
| COc1cc(N(CC(=O)O)S(=O)(=O)c2ccc(N(C)C)cc2)cc(OC)c1OC [Compound 34] | > 1000 | > 20000 | 168 to 170 | – | 6 |
| COc1cc(NS(=O)(=O)c2ccc(NC=O)cc2)cc(OC)c1OC [Compound 36] | > 1000 | > 20000 | – | 27 (≈ 73.7 µM) | 0 |
| CNc1ccc(S(=O)(=O)N(C)c2cc(OC)c(OC)c(OC)c2)cc1 [Compound 38] | 44 | 10000 | – | 16 (≈ 43.7 µM) | 47 |
| COc1ccc(S(=O)(=O)N(C)c2cc(OC)c(OC)c(OC)c2)cc1N [Compound 42] | 23 | 12000 | – | 108 (≈ 282 µM) | 41 |
| CCN(c1cc(OC)c(OC)c(OC)c1)S(=O)(=O)c1ccc(OC)c(N)c1 [Compound 43] | 38 | > 20000 | – | 58 (≈ 146 µM) | 37 |
| COc1ccc(S(=O)(=O)N(CC#N)c2cc(OC)c(OC)c(OC)c2)cc1N [Compound 44] | 60 | > 20000 | 139 to 145 | 46 (≈ 113 µM) | 5 |
| COc1ccc(S(=O)(=O)N(Cc2ccccc2)c2cc(OC)c(OC)c(OC)c2)cc1N [Compound 45] | 25 | 3700 | – | 14 (≈ 30.5 µM) | 75 |
